Data reported in ChEMBL document CHEMBL1201862, “PubChem BioAssay data set” (2004).
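Interpolation was linear, between the two tested concentrations surrounding the appropriate level; five concentrations were tested over 48 hours in 96-well plates. At the GI50, growth is halved.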 The source made the active and inactive calls. Cut-off read from the data, not from the text of the source: active = GI50 up to about 1.1 µM and inactive = higher.

Assays:
Assay in all cases: NCI-60 cell line screen, 48 h
786-0 = tested on: 786-0
A498 = tested on: A498
A549 = tested on: A549
ACHN = tested on: ACHN
BT-549 = tested on: BT-549
CAKI-1 = tested on: CAKI-1
CCRF-CEM = tested on: CCRF-CEM
COLO 205 = tested on: COLO 205
DLD-1 = tested on: DLD-1
DMS-114 = tested on: DMS-114
DMS-273 = tested on: DMS-273
DU-145 = tested on: DU-145
EKVX = tested on: EKVX
HCC 2998 = tested on: HCC 2998
HCT-116 = tested on: HCT-116
HCT-15 = tested on: HCT-15
HL-60 = tested on: HL-60
HOP-18 = tested on: HOP-18
HOP-62 = tested on: HOP-62
HOP-92 = tested on: HOP-92
HT-29 = tested on: HT-29
Hs-578T = tested on: Hs-578T
IGROV-1 = tested on: IGROV-1
K562 = tested on: K562
KM-20L2 = tested on: KM-20L2
KM12 = tested on: KM12
LOX IMVI = tested on: LOX IMVI
LXFL 529 = tested on: LXFL 529
M14 = tested on: M14
M19-MEL = tested on: M19-MEL
MCF7 = tested on: MCF7
MDA-MB-231 = tested on: MDA-MB-231
MDA-MB-435 = tested on: MDA-MB-435
MDA-N = tested on: MDA-N
MOLT-4 = tested on: MOLT-4
Malme-3M = tested on: Malme-3M
NCI-H226 = tested on: NCI-H226
NCI-H23 = tested on: NCI-H23
NCI-H460 = tested on: NCI-H460
NCI-H522 = tested on: NCI-H522
NCI/ADR-RES = tested on: NCI/ADR-RES
OVCAR-3 = tested on: OVCAR-3
OVCAR-4 = tested on: OVCAR-4
OVCAR-5 = tested on: OVCAR-5
OVCAR-8 = tested on: OVCAR-8
PC-3 = tested on: PC-3
RPMI-8226 = tested on: RPMI-8226
RXF 393 = tested on: RXF 393
SF-268 = tested on: SF-268
SF-295 = tested on: SF-295
SF-539 = tested on: SF-539
SK-MEL-28 = tested on: SK-MEL-28
SK-MEL-2 = tested on: SK-MEL-2
SK-MEL-5 = tested on: SK-MEL-5
SK-OV-3 = tested on: SK-OV-3
SN12C = tested on: SN12C
SNB-19 = tested on: SNB-19
SNB-75 = tested on: SNB-75
SR = tested on: SR
SW-620 = tested on: SW-620
T47D = tested on: T47D
TK-10 = tested on: TK-10
U-251 = tested on: U-251
UACC-257 = tested on: UACC-257
UACC-62 = tested on: UACC-62
UO-31 = tested on: UO-31
SNB-78 = tested on: SNB-78

CC1(O)CC2(O)C=CC3=C(C(=O)c4cccc(O)c4C3=O)C2(O)C(=O)C1O (configuration not stated)
GI50 (786-0): 1.96 µM (inactive)
GI50 (A498): 7.26 µM (inactive)
GI50 (A549): 9.95 µM (inactive)
GI50 (ACHN): 1.63 µM (inactive)
GI50 (BT-549): 1.17 µM (inactive)
GI50 (CAKI-1): 0.91 µM (active)
GI50 (CCRF-CEM): 0.206 µM (active)
GI50 (COLO 205): 0.152 µM (active)
GI50 (DLD-1): 0.791 µM (active)
GI50 (DMS-114): 1.67 µM (inactive)
GI50 (DMS-273): 5.08 µM (inactive)
GI50 (DU-145): 18.4 µM (inactive)
GI50 (EKVX): 2.44 µM (inactive)
GI50 (HCC 2998): 4.09 µM (inactive)
GI50 (HCT-116): 0.863 µM (active)
GI50 (HCT-15): 1.28 µM
GI50 (HL-60): 0.478 µM (active)
GI50 (HOP-18): 1.7 µM (inactive)
GI50 (HOP-62): 21.6 µM (inactive)
GI50 (HOP-92): 1.07 µM (active)
GI50 (HT-29): 2.43 µM (inactive)
GI50 (Hs-578T): 3.1 µM (inactive)
GI50 (IGROV-1): 4.6 µM (inactive)
GI50 (K562): 0.94 µM (active)
GI50 (KM-20L2): 1.16 µM (inactive)
GI50 (KM12): 8 µM (inactive)
GI50 (LOX IMVI): 1.47 µM (inactive)
GI50 (LXFL 529): 0.495 µM (active)
GI50 (M14): 1.37 µM (inactive)
GI50 (M19-MEL): 0.646 µM (active)
GI50 (MCF7): 0.624 µM (active)
GI50 (MDA-MB-231): 3.31 µM (inactive)
GI50 (MDA-MB-435): 1.8 µM (inactive)
GI50 (MDA-N): 1.78 µM (inactive)
GI50 (MOLT-4): 0.56 µM (active)
GI50 (Malme-3M): 0.406 µM (active)
GI50 (NCI-H226): 10.6 µM (inactive)
GI50 (NCI-H23): 2.92 µM (inactive)
GI50 (NCI-H460): 15.6 µM (inactive)
GI50 (NCI-H522): 0.124 µM (active)
GI50 (NCI/ADR-RES): 7.83 µM (inactive)
GI50 (OVCAR-3): 2.28 µM (inactive)
GI50 (OVCAR-4): 1.51 µM (inactive)
GI50 (OVCAR-5): 5.04 µM (inactive)
GI50 (OVCAR-8): 3.56 µM (inactive)
GI50 (PC-3): 6 µM (inactive)
GI50 (RPMI-8226): 1.26 µM (inactive)
GI50 (RXF 393): 0.964 µM (active)
GI50 (SF-268): 5.46 µM (inactive)
GI50 (SF-295): 13.6 µM (inactive)
GI50 (SF-539): 5.5 µM (inactive)
GI50 (SK-MEL-28): 1.69 µM (inactive)
GI50 (SK-MEL-2): 4.18 µM (inactive)
GI50 (SK-MEL-5): 3.3 µM (inactive)
GI50 (SK-OV-3): 15.2 µM (inactive)
GI50 (SN12C): 3.28 µM (inactive)
GI50 (SNB-19): 16.6 µM (inactive)
GI50 (SNB-75): 8.38 µM (inactive)
GI50 (SR): 2.3 µM (inactive)
GI50 (SW-620): 0.75 µM (active)
GI50 (T47D): 1.64 µM (inactive)
GI50 (TK-10): 1.73 µM (inactive)
GI50 (U-251): 4.04 µM (inactive)
GI50 (UACC-257): 1.25 µM (inactive)
GI50 (UACC-62): 2.94 µM (inactive)
GI50 (UO-31): 1.99 µM (inactive)

Cc1cc2c(c(C(N)=O)c1C)-c1cc(Cl)cc(Cl)c1C2=O
GI50 (786-0): 60.5 µM (inactive)
GI50 (A498): 54.6 µM (inactive)
GI50 (ACHN): > 100 µM (inactive)
GI50 (CCRF-CEM): > 100 µM (inactive)
GI50 (COLO 205): > 100 µM (inactive)
GI50 (DLD-1): > 100 µM (inactive)
GI50 (DMS-114): > 100 µM (inactive)
GI50 (DMS-273): > 100 µM (inactive)
GI50 (EKVX): 58.9 µM (inactive)
GI50 (HCC 2998): > 100 µM (inactive)
GI50 (HCT-116): > 100 µM (inactive)
GI50 (HCT-15): > 100 µM
GI50 (HL-60): > 100 µM (inactive)
GI50 (HOP-18): > 100 µM (inactive)
GI50 (HOP-62): > 100 µM (inactive)
GI50 (HOP-92): > 100 µM (inactive)
GI50 (HT-29): > 100 µM (inactive)
GI50 (IGROV-1): > 100 µM (inactive)
GI50 (K562): > 100 µM (inactive)
GI50 (KM-20L2): > 100 µM (inactive)
GI50 (KM12): > 100 µM (inactive)
GI50 (LOX IMVI): 93.3 µM (inactive)
GI50 (LXFL 529): > 100 µM (inactive)
GI50 (M14): > 100 µM (inactive)
GI50 (M19-MEL): > 100 µM (inactive)
GI50 (MOLT-4): > 100 µM (inactive)
GI50 (Malme-3M): > 100 µM (inactive)
GI50 (NCI-H23): > 100 µM (inactive)
GI50 (NCI-H460): > 100 µM (inactive)
GI50 (NCI-H522): > 100 µM (inactive)
GI50 (OVCAR-3): > 100 µM (inactive)
GI50 (OVCAR-4): > 100 µM (inactive)
GI50 (OVCAR-5): > 100 µM (inactive)
GI50 (OVCAR-8): 37.7 µM (inactive)
GI50 (RPMI-8226): > 100 µM (inactive)
GI50 (RXF 393): > 100 µM (inactive)
GI50 (SF-268): 97.7 µM (inactive)
GI50 (SF-295): 73.8 µM (inactive)
GI50 (SF-539): 90.2 µM (inactive)
GI50 (SK-MEL-28): > 100 µM (inactive)
GI50 (SK-MEL-2): > 100 µM (inactive)
GI50 (SK-OV-3): 57.4 µM (inactive)
GI50 (SN12C): > 100 µM (inactive)
GI50 (SNB-19): 79.4 µM (inactive)
GI50 (SNB-75): 22.6 µM (inactive)
GI50 (SNB-78): 41.3 µM (inactive)
GI50 (TK-10): > 100 µM (inactive)
GI50 (U-251): 30.7 µM (inactive)
GI50 (UACC-257): > 100 µM (inactive)
GI50 (UACC-62): > 100 µM (inactive)
GI50 (UO-31): > 100 µM (inactive)

COc1ccc2nc(NC(=O)C(=O)C(C#N)c3ccc(CC#N)cc3)sc2c1 (configuration not stated)
GI50 (786-0): > 100 µM (inactive)
GI50 (A498): > 100 µM (inactive)
GI50 (A549): > 100 µM (inactive)
GI50 (ACHN): > 100 µM (inactive)
GI50 (CAKI-1): > 100 µM (inactive)
GI50 (CCRF-CEM): > 100 µM (inactive)
GI50 (COLO 205): > 100 µM (inactive)
GI50 (DLD-1): > 100 µM (inactive)
GI50 (DMS-273): > 100 µM (inactive)
GI50 (EKVX): 33.5 µM (inactive)
GI50 (HCC 2998): > 100 µM (inactive)
GI50 (HCT-116): > 100 µM (inactive)
GI50 (HCT-15): > 100 µM
GI50 (HL-60): > 100 µM (inactive)
GI50 (HOP-18): > 100 µM (inactive)
GI50 (HOP-62): > 100 µM (inactive)
GI50 (HOP-92): 96.8 µM (inactive)
GI50 (HT-29): > 100 µM (inactive)
GI50 (IGROV-1): > 100 µM (inactive)
GI50 (K562): > 100 µM (inactive)
GI50 (KM-20L2): > 100 µM (inactive)
GI50 (KM12): > 100 µM (inactive)
GI50 (LOX IMVI): > 100 µM (inactive)
GI50 (LXFL 529): > 100 µM (inactive)
GI50 (M14): > 100 µM (inactive)
GI50 (M19-MEL): > 100 µM (inactive)
GI50 (MOLT-4): > 100 µM (inactive)
GI50 (Malme-3M): > 100 µM (inactive)
GI50 (NCI-H226): > 100 µM (inactive)
GI50 (NCI-H23): > 100 µM (inactive)
GI50 (NCI-H460): > 100 µM (inactive)
GI50 (NCI-H522): > 100 µM (inactive)
GI50 (OVCAR-3): > 100 µM (inactive)
GI50 (OVCAR-4): > 100 µM (inactive)
GI50 (OVCAR-5): > 100 µM (inactive)
GI50 (OVCAR-8): > 100 µM (inactive)
GI50 (RPMI-8226): > 100 µM (inactive)
GI50 (RXF 393): > 100 µM (inactive)
GI50 (SF-268): > 100 µM (inactive)
GI50 (SF-295): > 100 µM (inactive)
GI50 (SF-539): > 100 µM (inactive)
GI50 (SK-MEL-28): > 100 µM (inactive)
GI50 (SK-MEL-2): > 100 µM (inactive)
GI50 (SK-MEL-5): > 100 µM (inactive)
GI50 (SK-OV-3): > 100 µM (inactive)
GI50 (SN12C): > 100 µM (inactive)
GI50 (SNB-19): 53 µM (inactive)
GI50 (SNB-75): > 100 µM (inactive)
GI50 (SNB-78): > 100 µM (inactive)
GI50 (SW-620): > 100 µM (inactive)
GI50 (TK-10): > 100 µM (inactive)
GI50 (U-251): > 100 µM (inactive)
GI50 (UACC-257): > 100 µM (inactive)
GI50 (UACC-62): 92.9 µM (inactive)
GI50 (UO-31): 54.6 µM (inactive)
